Assay results taken from patent US10081662B2, “Modified relaxin B chain peptides” (The Florey Institute of Neuroscience and Mental Health, priority 2014, dated 2018).
Peptide text beside a SMILES is read from it.

Key:
[1] = test system: ERK1/2; assay: ERK1/2 phosphorylation (AlphaScreen SureFire) in rat renal myofibroblasts endogenously expressing RXFP1; format: cell-based
Procedure: The inventors then tested the single chain B7-33 C11.23S relaxin-2 peptide for its ability to signal via different pathways, cAMP (see Example 2) and pERK.1/2 on HEK-293T (cells stably expressing RXFP1) and myofibroblast cells (cells endogenously expressing RXFP1) The cAMP assay was conducted as described in Example 2. Phosphorylation of ERK1/2 was determined using AlphaScreen SureFire® assay which is a proprietary, non-radioactive and non-Western proximity assay that relies on singlet oxygen energy transfer (PerkinElmer Inc.). Rat renal fibroblasts (that endogenously express RXFP1 receptor) were seeded into a 96-well plate at a density of 40,000 cells per well and incubated overnight in complete media to allow cell adhesion. Cells were then serum-starved for 4-6 hours followed by native H2 relaxin (100 nM) or B7-33 C11.23S peptide (100 nM) treatment for periods of up to 20 minutes and ERK1/2 activation was quantified using the phospho-ERK1/2 Surefire AlphaScreen kit.

[2] = test system: mouse model of OVA-induced chronic allergic airway disease; assay: Mouse model of OVA-induced chronic allergic airway disease; format: in vivo; settings: Balb/c mice
Text: Seven to eight-week old male 129SV mice (which are sensitive to tissue injury and fibrosis) and age-matched female Balb/c mice (which are sensitive to changes in airway hyperresponsiveness) were used for the induction of isoproterenol-induced cardiomyopathy and ovalbumin-induced chronic allergic airways disease, respectively. 16 five week-old male C57BL/6 mice were used in the induction of prostate cancer growth. All animals were obtained from Monash Animal Services (Monash University, Clayton, Victoria, Australia) and housed under standard conditions (maintained on an 12 h light-12 h dark lighting cycle with free access to food and water) in the Department of Pharmacology Animal Room at Monash University.
Twenty-four hours after the last vehicle/drug administration, methacholine-induced airway reactivity was assessed by invasive plethysmography as described before (Locke et al. 2007, Am J Respir Mol Biol 36, 625-632; Royce et al. 2009, Endocrinology 150, 2692-2699). Mice were anaesthetized intraperitoneally with 200 μg/g ketamine and 10 μg/g xylazine. Tracheotomy was performed using an 18-gauge tracheotomy tube and jugular vein cannulated with a 0.61 9 0.28 mm polyethylene tube (Microtube Extrusions, North Rocks, NSW, Australia), Mice were then placed in a plethysmograph chamber (Buxco Research Systems, Wilmington, N.C., USA) where increasing concentrations of acetyl-β-methacholine (from 31.25 μg/kg to 500 μg/kg) were delivered intravenously in five doses. After every dose, airway resistance and compliance were measured (Biosystem XA version 2.7.9; Buxco Electronics Inc, Wilmington, N.C., USA). The change in airway resistance calculated by the maximal resistance after each dose minus baseline resistance (phosphate buffered saline alone) was plotted against each dose of methacholine evaluated.
The mid zone of the male mouse heart and largest lung lobe from female Balb/c mice were fixed in 10% neutral buffered formalin for 24-48 h before being processed and embedded routinely in paraffin wax. Representative sections of tissue, 3-5 um each, were taken and stained with either picrosirius red (Samuel et al. 2011 Lab Invest 91, 675-690) for the detection of interstitial collagen or Masson's trichrome (Royce et al, 2009, Endocrinology 150, 2692-2699) for the detection of subepithelial basement membrane collagen deposition).
Changes in picrosirius-red stained interstitial collagen or epithelial thickness and subepithelial collagen (fibrosis) around the airway lumen from Masson's trichrome-stained sections; which were all captured (at ×20 magnification) using a SPOT digital camera (Q Imaging, Burnaby, BC, Canada) and analysed with Image J 1.3 software (National Institutes of Health, Bethesda, Md.). Four to five fields per mid zone of the heart or 4-5 airways (of 150-350 μm in diameter) per mouse were assessed. Epithelial thickness and subepithelial collagen regions were traced with a digital pen and the thickness of each region calculated by the imaging software. Results were expressed as mean thickness ([…]) of the 4-5 airways sampled.
The apical region of the heart or second largest lung lobe from each mouse was treated as described previously (Samuel C S, et at., 2003, FASEB J 17, 121-123; Royce et at. 2009, Endocrinology 150, 2692-2699) for the determination of hydroxyproline content. Hydroxyproline values were estimated based on a standard curve constructed with serial dilutions of a 0.1 mg/mL stock of trans-4-hydroxyproline-L-proline (Sigma-Aldrich). Hydroxyproline values were then converted to collagen content as detailed previously (Samuel CS, et al. 2004. Endocrinology 145, 4125-4133) and, in turn, divided by the dry weight of each corresponding left ventricular or lung tissue assessed to yield collagen concentration (a measure of fibrosis).
The inventors also tested the fibrosis preventing activity of B7-33 C11.23S in a model of chronic allergic airway disease (AAD). […]

[3] = target: T1, fusion protein comprising the extracellular domain of RXFP1 and the transmembrane domain of CD8 (7BP cells) (Homo sapiens, UniProt Q9HBX9); assay: Eu-labelled H2 relaxin competition binding to 7BP cells; settings: 7BP cells
T1 construct: the extracellular domain of RXFP1 and the transmembrane domain of CD8; expressed in transfected cells
T1 sequence (Q9HBX9 1-409 limits assumed): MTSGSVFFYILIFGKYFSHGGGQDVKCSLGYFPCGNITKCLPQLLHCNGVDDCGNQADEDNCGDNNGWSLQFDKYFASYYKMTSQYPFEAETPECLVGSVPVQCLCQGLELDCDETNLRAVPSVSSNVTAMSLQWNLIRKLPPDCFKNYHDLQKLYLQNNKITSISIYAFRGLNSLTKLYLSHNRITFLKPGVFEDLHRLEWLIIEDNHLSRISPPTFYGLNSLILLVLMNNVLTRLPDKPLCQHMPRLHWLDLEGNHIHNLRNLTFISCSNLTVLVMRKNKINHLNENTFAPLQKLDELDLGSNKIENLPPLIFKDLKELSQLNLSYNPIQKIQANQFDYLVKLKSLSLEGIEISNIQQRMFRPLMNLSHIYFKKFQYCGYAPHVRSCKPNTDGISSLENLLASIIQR

`CC[C@H](C)[C@H](NC(=O)[C@H](C)NC(=O)[C@@H](NC(=O)[C@H](CCC(N)=O)NC(=O)[C@H](C)NC(=O)[C@H](CCCNC(=N)N)NC(=O)[C@@H](NC(=O)[C@H](CC(C)C)NC(=O)[C@H](CCC(=O)O)NC(=O)[C@H](CCCNC(=N)N)NC(=O)CNC(=O)[C@H](CO)NC(=O)[C@H](CC(C)C)NC(=O)[C@H](CCCCN)NC(=O)[C@@H](NC(=O)[C@@H](N)C(C)C)[C@@H](C)CC)C(C)C)[C@@H](C)CC)C(=O)N[C@@H](CO)C(=O)NCC(=O)N[C@@H](CCSC)C(=O)N[C@@H](CO)C(=O)N[C@H](C(=O)N[C@@H](Cc1c[nH]c2ccccc12)C(=O)N[C@@H](CO)C(=O)N[C@@H](CCCCN)C(=O)N[C@@H](CCCNC(=N)N)C(=O)N[C@@H](CO)C(=O)N[C@@H](CC(C)C)C(N)=O)[C@@H](C)O` [B7-33 C11.23S] (H-VIKLSGRELVRAQIAISGMSTWSKRSL-NH2) was tested, and the “pERK potency in rat renal myofibroblast (in words)” value ([1]; rat renal myofibroblasts natively expressing RXFP1, FIG. 4) was “very high pERK potency”, the “Time of peak ERK1/2 activation after peptide treatment” value ([1]; rat renal myofibroblasts, 100 nM peptide) was 5 min and the “ERK1/2 activation, level of efficacy” value ([1]; rat renal myofibroblasts, 100 nM peptide, up to 20 minutes, FIG. 4) was “slightly higher level of efficacy as H2 relaxin”. The “Airway hyper-responsiveness (change in airway resistance to methacholine)” value ([2]; OVA-induced increase, invasive plethysmography, FIG. 8D) was “attenuated”, the “Mean airway epithelial thickness” value ([2]; compared to OVA treatment, FIG. 8B) was “significantly reduced” and the “Total lung collagen content (hydroxyproline analysis)” value ([2]; relative to OVA treatment, FIG. 8C) was “normalised”. The Ki ([3]; competition with Eu-labelled H2 relaxin, n ≥ 3, read-out: 7BP Eu-H2 pKi (converted)) was 22.4 nM and the “Binding to 7BP cells (in words)” value ([3]; lower affinity than H2 relaxin, FIG. 2B) was “strongly bind to 7BP cells”.
